Drawing on publication PMC6934184, “Selective DNA-PKcs inhibition extends the therapeutic index of localized radiotherapy and chemotherapy” (The Journal of Clinical Investigation, 2019), this text covers inhibition for one molecule.

For this test, the target named is T1, DYRK2 (Homo sapiens, UniProt Q92630).
T1 construct: purchased Thermo Fisher Scientific (Life Technologies) SelectScreen
Description: SelectScreen LanthaScreen. It counts as binding. As to conditions: read-out: % displacement. The essentials: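 NU5455 was profiled across the SelectScreen Broad panel of kinase activity and binding assays. Z'LYTE reactions such as CSF1R ran at apparent Km ATP, while the Adapta CAMK1 assay used ATP listed as 10. Values are given as percent.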

T1 sequence (Q92630 whole entry): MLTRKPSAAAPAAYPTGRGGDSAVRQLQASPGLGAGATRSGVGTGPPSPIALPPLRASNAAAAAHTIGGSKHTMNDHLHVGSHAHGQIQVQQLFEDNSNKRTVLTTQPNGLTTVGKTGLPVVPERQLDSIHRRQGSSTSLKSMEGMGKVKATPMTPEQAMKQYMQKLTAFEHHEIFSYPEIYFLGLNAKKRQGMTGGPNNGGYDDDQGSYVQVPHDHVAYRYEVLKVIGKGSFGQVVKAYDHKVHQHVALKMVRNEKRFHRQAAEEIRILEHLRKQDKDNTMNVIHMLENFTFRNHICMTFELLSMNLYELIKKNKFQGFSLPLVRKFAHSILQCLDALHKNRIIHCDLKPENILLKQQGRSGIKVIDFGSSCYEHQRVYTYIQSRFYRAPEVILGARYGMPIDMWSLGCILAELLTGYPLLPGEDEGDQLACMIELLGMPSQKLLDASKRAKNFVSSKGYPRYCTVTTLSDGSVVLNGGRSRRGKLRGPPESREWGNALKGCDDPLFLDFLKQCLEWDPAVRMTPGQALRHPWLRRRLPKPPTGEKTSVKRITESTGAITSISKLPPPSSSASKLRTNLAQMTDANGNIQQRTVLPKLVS

For `CN(C(=O)CN1CCOCC1)c1ccc2sc3c(-c4cccc5c(=O)cc(N6CC7CCC(C6)O7)oc45)cccc3c2c1` [NU5455], the inhibition at 1 µM is 5%.
